Test [1] relates to Staphylococcus aureus. Nature of the test: Antibacterial activity against Staphylococcus aureus ATCC 6538p after 24 hrs. It is filed as functional.
The subject of test [2] is Bacillus subtilis. Nature of the test: Antibacterial activity against Bacillus subtilis ATCC 6633 after 24 hrs. The note with it: ATCC 6633, 24 h. It is filed as functional.
The test system of test [3] is Micrococcus luteus. Nature of the test: Antibacterial activity against Micrococcus luteus […] after 24 hrs. It is filed as functional.
The test system of test [4] is Proteus vulgaris. Nature of the test: Antibacterial activity against Proteus vulgaris ATCC 3851 after 24 hrs. It counts as functional. Conditions: ATCC 3851, 24 h.
Test [5] concerns Salmonella typhimurium. Nature of the test: Antibacterial activity against Salmonella Typhimurium ATCC 14028 after 24 hrs. It is filed as functional, Salmonella enterica subsp. enterica serovar Typhimurium. The note with it: Salmonella enterica, ATCC 14028, 24 h.
For test [6], the system named is Escherichia coli. Nature of the test: Antibacterial activity against Escherichia coli ATCC 25922 after 24 hrs. The note with it: ATCC 25922, 24 h. It is filed as functional.
The subject of test [7] is Candida albicans. Nature of the test: Antifungal activity against Candida albicans ATCC 10231 after 48 to 72 hrs. It counts as functional.
For test [8], the system named is Aspergillus fumigatus. Nature of the test: Antifungal activity against Aspergillus fumigatus HIC 6094 after 48 to 72 hrs. It is filed as functional.
The test system of test [9] is Trichophyton rubrum. Nature of the test: Antifungal activity against Trichophyton rubrum IFO 9185 after 48 to 72 hrs. It counts as functional.
Test [10] concerns Trichophyton mentagrophytes. Nature of the test: Antifungal activity against Trichophyton mentagrophytes IFO 40996 after 48 to 72 hrs. It counts as functional.

This is an account of results in ChEMBL document CHEMBL1143276, “Synthesis and antimicrobial activities of halogenated bis(hydroxyphenyl)methanes” (2009).

Molecules are shown by their SMILES. Converted amounts (≈) assume the structure as drawn.

In the case of `Oc1cc(Br)c(Cc2cc(O)c(O)cc2Br)cc1O`, the MIC in test [1] is 25 µg/mL (≈ 64.1 µM); in test [2] it was 25 µg/mL (≈ 64.1 µM); in test [3] it was 12.5 µg/mL (≈ 32 µM); in [4], 25 µg/mL (≈ 64.1 µM); in test [5], 25 µg/mL (≈ 64.1 µM); in [6] it was above 100 µg/mL. Besides, the MIC in test [7] was above 100 µg/mL; in test [8], above 100 µg/mL; in [9], above 100 µg/mL; in test [10], 50 µg/mL (≈ 128 µM).
Take `Oc1cc(Cc2cc(O)c(O)c(Br)c2Br)c(Br)c(Br)c1O`: the MIC in test [1] amounted to 25 µg/mL (≈ 45.6 µM); in test [2] it was 25 µg/mL (≈ 45.6 µM); in test [3] it was 25 µg/mL (≈ 45.6 µM); in test [4], 25 µg/mL (≈ 45.6 µM); in [5], 25 µg/mL (≈ 45.6 µM); in [6], 50 µg/mL (≈ 91.3 µM). In addition, the MIC in test [7] was found to be 25 µg/mL (≈ 45.6 µM); in test [8], 12.5 µg/mL (≈ 22.8 µM); in test [9] it was 12.5 µg/mL (≈ 22.8 µM); in test [10], 1.56 µg/mL (≈ 2.85 µM).
With `Oc1c(Br)cc(Br)cc1Cc1cc(Br)cc(Br)c1O`, the MIC in test [1] was 1.56 µg/mL (≈ 3.02 µM); in test [2], 1.56 µg/mL (≈ 3.02 µM); in [3], 1.56 µg/mL (≈ 3.02 µM); in test [4], 1.56 µg/mL (≈ 3.02 µM); in test [5], 3.12 µg/mL (≈ 6.05 µM); in test [6] it was above 100 µg/mL. The MIC in test [7], in test [8], in [9] and in [10] was above 100 µg/mL each time.
Regarding `Oc1cc(Cl)c(Cc2cc(O)c(O)c(Cl)c2Cl)cc1O`, the MIC was 12.5 µg/mL (≈ 37.3 µM) in test [1]; 25 µg/mL (≈ 74.5 µM) in [2]; 12.5 µg/mL (≈ 37.3 µM) in [3]; 25 µg/mL (≈ 74.5 µM) in [4]; 25 µg/mL (≈ 74.5 µM) in test [5]; 100 µg/mL (≈ 298 µM) in test [6]. Moreover, the MIC is 100 µg/mL (≈ 298 µM) in [7], above 100 µg/mL in test [8], above 100 µg/mL in [9] and 25 µg/mL (≈ 74.5 µM) in test [10].
`Oc1ccc(Cc2cc(O)c(O)cc2Cl)cc1O`: the MIC is above 100 µg/mL in [1]; above 100 µg/mL in test [2]; 100 µg/mL (≈ 375 µM) in test [3]; above 100 µg/mL in test [4]; above 100 µg/mL in test [5]; above 100 µg/mL in [6]. The MIC in test [7], in [8], in test [9] and in test [10] was above 100 µg/mL throughout.
In the case of `CC1(C)S[C@@H]2[C@H](NC(=O)[C@H](N)c3ccccc3)C(=O)N2[C@H]1C(=O)O` [AMPICILLIN], the MIC was 1.56 µg/mL (≈ 4.46 µM) in test [1]; 1.56 µg/mL (≈ 4.46 µM) in test [2]; 1.56 µg/mL (≈ 4.46 µM) in test [3]; 3.12 µg/mL (≈ 8.93 µM) in test [4]; 3.12 µg/mL (≈ 8.93 µM) in [5]; 12.5 µg/mL (≈ 35.8 µM) in [6].
In the case of `Oc1cc(Cl)c(Cc2cc(O)c(O)cc2Cl)cc1O`, the MIC in test [1] was 50 µg/mL (≈ 166 µM); in [2] it was 50 µg/mL (≈ 166 µM); in [3], 25 µg/mL (≈ 83 µM); in test [4], 50 µg/mL (≈ 166 µM); in test [5], 50 µg/mL (≈ 166 µM); in test [6], above 100 µg/mL. In addition, the MIC in test [7] was above 100 µg/mL; in test [8], above 100 µg/mL; in test [9] it was above 100 µg/mL; in test [10], 50 µg/mL (≈ 166 µM).
Regarding `Oc1ccc(Cl)cc1Cc1cc(Cl)ccc1O` [DICHLOROPHEN], the MIC in [1] came to 12.5 µg/mL (≈ 46.4 µM); in test [2] it was 12.5 µg/mL (≈ 46.4 µM); in test [3], 12.5 µg/mL (≈ 46.4 µM); in [4] it was 12.5 µg/mL (≈ 46.4 µM); in test [5], 6.25 µg/mL (≈ 23.2 µM); in [6] it was 100 µg/mL (≈ 372 µM). For the same molecule, the MIC in test [7] was found to be 25 µg/mL (≈ 92.9 µM); in [8] it was 50 µg/mL (≈ 186 µM); in [9], 50 µg/mL (≈ 186 µM); in test [10], 12.5 µg/mL (≈ 46.4 µM).
In the case of `Brc1cc2c(cc1Cc1cc3c(cc1Br)OCO3)OCO2`, the MIC in [1], in [2], in test [3], in test [4], in [5] and in test [6] was above 100 µg/mL in each case. In addition, the MIC in test [7], in [8], in [9] and in test [10] was above 100 µg/mL in each case.
Regarding `C[C@@H]1[C@H](O)[C@@H](C)/C=C/C=C/C=C/C=C/C=C/C=C/C=C/[C@H](O[C@@H]2O[C@H](C)[C@@H](O)[C@H](N)[C@@H]2O)C[C@@H]2O[C@](O)(C[C@@H](O)C[C@@H](O)[C@H](O)CC[C@@H](O)C[C@@H](O)CC(=O)O[C@H]1C)C[C@H](O)[C@H]2C(=O)O` [AMPHOTERICIN B], the MIC is 6.25 µg/mL (≈ 6.76 µM) in test [7], 3.12 µg/mL (≈ 3.38 µM) in test [8], 3.12 µg/mL (≈ 3.38 µM) in test [9] and 3.12 µg/mL (≈ 3.38 µM) in test [10].
`Oc1cc(Cc2c(Br)c(O)c(O)c(Br)c2Br)c(Br)c(Br)c1O`: the MIC in [1] worked out at 25 µg/mL (≈ 39.9 µM); in [2] it was 25 µg/mL (≈ 39.9 µM); in test [3] it was 25 µg/mL (≈ 39.9 µM); in test [4] it was 12.5 µg/mL (≈ 19.9 µM); in test [5], 25 µg/mL (≈ 39.9 µM); in test [6], 50 µg/mL (≈ 79.8 µM). Moreover, the MIC in [7] was 6.25 µg/mL (≈ 9.97 µM); in test [8] it was 3.12 µg/mL (≈ 4.98 µM); in [9] it was 1.56 µg/mL (≈ 2.49 µM); in test [10] it was 1.56 µg/mL (≈ 2.49 µM).
On to `Oc1ccccc1Cc1cccc(Cl)c1O`, for which the MIC in test [1] was 50 µg/mL (≈ 213 µM); in test [2], 100 µg/mL (≈ 426 µM); in [3], 50 µg/mL (≈ 213 µM); in [4] it was 100 µg/mL (≈ 426 µM); in test [5], 100 µg/mL (≈ 426 µM); in test [6] it was 100 µg/mL (≈ 426 µM). Moreover, the MIC in test [7] was 50 µg/mL (≈ 213 µM); in test [8], 100 µg/mL (≈ 426 µM); in [9], 100 µg/mL (≈ 426 µM); in test [10] it was 12.5 µg/mL (≈ 53.3 µM).
On to `Oc1ccc(Cc2cc(O)c(O)cc2Br)cc1O`, for which the MIC in test [1] is above 100 µg/mL; in test [2], above 100 µg/mL; in test [3], 100 µg/mL (≈ 321 µM); in test [4] it was above 100 µg/mL; in test [5] it was above 100 µg/mL; in [6], above 100 µg/mL. The MIC in [7], in test [8], in [9] and in [10] was above 100 µg/mL throughout.
On to `Oc1c(Cl)cc(Cl)cc1Cc1cc(Cl)cc(Cl)c1O`, for which the MIC in test [1] is 0.78 µg/mL (≈ 2.31 µM); in test [2], 1.56 µg/mL (≈ 4.62 µM); in test [3] it was 0.78 µg/mL (≈ 2.31 µM); in [4] it was 0.78 µg/mL (≈ 2.31 µM); in test [5], 3.12 µg/mL (≈ 9.23 µM); in test [6], above 100 µg/mL. For the same molecule, the MIC is 100 µg/mL (≈ 296 µM) in test [7], above 100 µg/mL in [8], above 100 µg/mL in test [9] and 12.5 µg/mL (≈ 37 µM) in [10].
As for `Oc1cc(Cc2cc(O)c(O)c(Cl)c2Cl)c(Cl)c(Cl)c1O`, the MIC was 25 µg/mL (≈ 67.6 µM) in test [1]; 25 µg/mL (≈ 67.6 µM) in test [2]; 25 µg/mL (≈ 67.6 µM) in [3]; 25 µg/mL (≈ 67.6 µM) in test [4]; 25 µg/mL (≈ 67.6 µM) in [5]; 50 µg/mL (≈ 135 µM) in test [6]. The MIC is 50 µg/mL (≈ 135 µM) in [7], 50 µg/mL (≈ 135 µM) in test [8], 50 µg/mL (≈ 135 µM) in [9] and 3.12 µg/mL (≈ 8.43 µM) in test [10].
Turning to `Oc1ccccc1Cc1cc(Cl)ccc1O`, the MIC in test [1] came out at 25 µg/mL (≈ 107 µM); in test [2] it was 25 µg/mL (≈ 107 µM); in test [3] it was 25 µg/mL (≈ 107 µM); in test [4], 25 µg/mL (≈ 107 µM); in test [5], 25 µg/mL (≈ 107 µM); in [6] it was 50 µg/mL (≈ 213 µM). Besides, the MIC in test [7] was found to be 50 µg/mL (≈ 213 µM); in test [8], 50 µg/mL (≈ 213 µM); in test [9], 50 µg/mL (≈ 213 µM); in test [10], 6.25 µg/mL (≈ 26.6 µM).

Usually MIC stands for the smallest concentration in the dilution series that meets the test's criterion for growth inhibition. The low end stands for inhibition by little substance, the high end for a need for much substance.
